{"source": "patent US20080167384A1", "about": "“Use of Zeaxanthin For the Treatment of Diseases of the Peripheral Retina” (priority 2005, published 2008)", "test": "Trial of zeaxanthin supplementation: macular pigment density monitored by heterochromatic flicker photometry (HCFP)", "assay_type": "in vivo", "conditions": "Zeaxanthin 20 mg/day, 6-12 months", "method": "The usefulness of zeaxanthin for the purposes of the present invention can be seen from the results of a trial with a duration of 6-12 months carried out with 46 subjects which were randomized to two treatment groups: Zeaxanthin, 20 mg/day (n=23), and Placebo (n=23). Macular pigment density (MPD) during this trial was monitored monthly using heterochromatic flicker photometry (HCFP) by independently measuring luminances at central and eccentric (5°=reference) locations. MPD is then calculated by subtracting the luminance at the reference (=eccentric) location from the luminance at the retinal centre.", "data": [{"smiles": "CC1=C(/C=C/C(C)=C/C=C/C(C)=C/C=C/C=C(C)/C=C/C=C(C)/C=C/C2=C(C)C[C@@H](O)CC2(C)C)C(C)(C)C[C@H](O)C1", "note": "[zeaxanthin]", "values": [{"measurement": "rise of luminance at the eccentric reference location", "setting": "HCFP, eccentric (5°) reference location", "result": "approximately 8%"}, {"measurement": "rise of luminance at the central location", "setting": "HCFP, retinal centre", "result": "approximately 8%"}, {"measurement": "increase of macular pigment density (MPD) computed with the pre-supplementation eccentric reference luminance", "setting": "actual central luminances minus pre-supplementation eccentric reference luminance", "result": "about 11%"}]}]}
